Consider 25 molecules from PubChem BioAssay (NCI).

Holding throughout (assay): NCI anticancer screen, dose series, 48 h
The test system of experiment [1] is HOP-92 NSCLC.
In experiment [2] the test system is KM12 colon.
Experiment [3] relates to NCI-H23 lung.
Experiment [4] relates to COLO 205 colon.
Experiment [5] has as its system HT29 colon.
Experiment [6] relates to PC-3 prostate.
Experiment [7] concerns SK-MEL-2 melanoma.
Experiment [8] has as its system NCI-H460 lung.
The test system of experiment [9] is DU-145 prostate.
In experiment [10] the test system is SK-MEL-28 melanoma.
Experiment [11] has as its system HCT-15 colon.
Experiment [12] relates to UACC-257 melanoma.
For experiment [13], the system named is SK-MEL-5 melanoma.

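Tested at 5 concentrations; 48 h exposure; 96-well plates; endpoints linearly interpolated, else capped at highest concentration. TGI: total growth inhibition.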

Regarding `O=C1/C(=C/c2cccc(Br)c2)CCc2ccccc21`, the TGI amounted to 28.2 µM in experiment [1]; 20.7 µM in experiment [2]; 32.6 µM in [3]; 40.8 µM in experiment [4]; 27.1 µM in experiment [5]; 27.7 µM in experiment [6]. Besides, the TGI came to 25.8 µM in experiment [7]; 28.5 µM in [8]; 30.9 µM in experiment [9]; 33.8 µM in experiment [10]; 24.1 µM in experiment [11]; 28.6 µM in experiment [12].
With `C[N+](C)(C)CC(=O)N/N=C/c1oc(-c2c(O)ccc3ccccc23)c(-c2c(O)ccc3ccccc23)c1[N+](=O)[O-]`, the TGI worked out at 50.9 µM in experiment [1]; 38.9 µM in experiment [2]; 37.2 µM in experiment [3]; 42.2 µM in [4]; 38.5 µM in experiment [5]; 33.4 µM in experiment [7]. Moreover, the TGI turned out to be 22.9 µM in experiment [13]; 49.3 µM in experiment [8]; 47.6 µM in experiment [9]; 49.2 µM in [10]; 51.9 µM in [12].
Turning to `O=c1[nH]c2cc([N+](=O)[O-])ccc2nc1/C(=N/Nc1ccccc1)C(O)c1ccccc1Cl` (stereo not given), the TGI in experiment [1], in experiment [2], in experiment [3], in [4], in experiment [5] and in experiment [7] was more than 100 µM in each case. The TGI in [13] was more than 100 µM; in experiment [8] it was more than 100 µM; in experiment [10], more than 100 µM; in experiment [11], 36.3 µM; in experiment [12] it was more than 100 µM.
For `C/C(CC(=O)Nc1ccc([N+](=O)[O-])cc1)=N\NC(N)=O`, the TGI in experiment [1], in experiment [2], in experiment [3], in experiment [4], in [5] and in experiment [7] was more than 100 µM in each case. In addition, the TGI in experiment [13], in experiment [8], in experiment [10], in experiment [11] and in experiment [12] was more than 100 µM each time.
Consider `Cc1csc2c(=O)n(C3OC(CO)C(O)C3O)c(=O)[nH]c12` (stereo not given), for which the TGI in [1], in [2], in [3], in experiment [4], in experiment [5] and in experiment [6] was more than 100 µM in each case. Further, the TGI in experiment [13], in experiment [8], in [9], in [10] and in experiment [12] was more than 100 µM throughout.
For the molecule `CCc1n[nH]c(=O)n1/N=C/c1c(O)ccc2ccccc12`, the TGI in experiment [1], in experiment [2], in [3], in experiment [4], in experiment [6] and in experiment [7] was more than 100 µM throughout. Further, the TGI in [13], in experiment [9], in experiment [10], in experiment [11] and in experiment [12] was more than 100 µM throughout.
For `COC(=O)C(=O)C(C(=O)C(=O)Nc1ccc(F)cc1)c1nc2ccc([N+](=O)[O-])cc2[nH]c1=O` (stereo not given), the TGI in [1], in experiment [2], in experiment [3], in [4], in experiment [5] and in experiment [13] was more than 100 µM throughout. Also, the TGI in [8], in [10], in experiment [11] and in experiment [12] was more than 100 µM throughout.
For the molecule `COc1ccc2c3c1O[C@]1(C)C34CCN(C)C(C2)C42C=C[C@@]1(OC)c1c(O)ccc(O)c12`, the TGI in experiment [1], in [2], in experiment [3], in [4], in experiment [5] and in experiment [7] was more than 100 µM in each case. In addition, the TGI in experiment [13], in experiment [8], in experiment [10] and in experiment [12] was more than 100 µM in each case.
For `CC(=O)OC1COC(n2c(O)c(N=NC(N)=S)c3cc(Br)ccc32)C(OC(C)=O)C1OC(C)=O` (stereo not given), the TGI in experiment [1], in experiment [2], in experiment [3], in [4], in experiment [5] and in experiment [7] was more than 100 µM each time. The TGI in experiment [13], in experiment [8], in experiment [10], in experiment [11] and in experiment [12] was more than 100 µM in each case.
Regarding `CN(C)Nc1cc(=O)[nH]c(=O)[nH]1`, the TGI in [1], in experiment [2], in [4], in [5], in [6] and in [13] was more than 100 µM each time. For the same molecule, the TGI in experiment [8], in [9], in [10], in experiment [11] and in experiment [12] was more than 100 µM each time.
For `C[C@]12CCC(=O)C=C1CC[C@@H]1[C@@H]2CC[C@]2(C)C(=O)NC(=O)C[C@@H]12`, the TGI in [1], in experiment [2], in experiment [3], in experiment [4], in [5] and in [7] was more than 100 µM each time. For the same molecule, the TGI in experiment [13], in [8], in experiment [10], in experiment [11] and in [12] was more than 100 µM each time.
Consider `COC(=O)N/N=C(\Cc1ccccc1)CN(C)C`, for which the TGI in [1], in experiment [2], in experiment [3], in experiment [4], in experiment [5] and in [7] was more than 100 µM each time. The TGI in experiment [13], in experiment [8], in [10] and in experiment [12] was more than 100 µM each time.
For `NC1=C(NC(=O)Cc2ccc(F)cc2)C(=O)c2ccccc2C1=O`, the TGI in experiment [1] was 64.3 µM; in experiment [2], more than 100 µM; in experiment [3] it was 27.9 µM; in experiment [4] it was more than 100 µM; in experiment [5], more than 100 µM; in [7] it was more than 100 µM. The TGI in experiment [13], in [8], in experiment [10], in [11] and in [12] was more than 100 µM throughout.
Take `CCOP(=O)(OCC)/C(C#N)=C/c1ncc[nH]1`: the TGI in experiment [1], in [2], in [3], in experiment [4], in experiment [5] and in [6] was more than 100 µM in each case. In addition, the TGI in experiment [7], in experiment [13], in experiment [8], in experiment [9], in [10] and in experiment [12] was more than 100 µM in each case.
`O=C1NC2ON=C(c3ccccc3)C2C2ON=C(c3ccccc3)N12` (stereo not given): the TGI in experiment [2], in [3], in experiment [4], in experiment [5], in experiment [6] and in experiment [13] was more than 100 µM in each case. In addition, the TGI in experiment [8], in experiment [9], in experiment [11] and in experiment [12] was more than 100 µM throughout.
`O=C(CSc1nnc(-c2ccc(N=Cc3ccc(Cl)cc3)cc2)o1)Nc1ccccc1[N+](=O)[O-]`: the TGI in experiment [2], in [3], in experiment [4], in experiment [5], in experiment [7] and in experiment [13] was more than 100 µM in each case. The TGI in [8], in experiment [10], in [11] and in [12] was more than 100 µM each time.
Regarding `O=C(c1cccs1)N(C(=S)N1CCN(c2ccccn2)CC1)c1ccccc1`, the TGI in experiment [1], in experiment [2], in [3], in [4], in experiment [5] and in [7] was more than 100 µM each time. The TGI in experiment [13], in experiment [8], in experiment [10], in experiment [11] and in experiment [12] was more than 100 µM each time.
On to `NC(=O)N/N=C(\CC1OC(=O)c2ccccc21)c1ccco1` (stereo not given), for which the TGI in [1], in [2], in experiment [3], in experiment [4], in [5] and in [7] was more than 100 µM throughout. In addition, the TGI in experiment [13], in experiment [8], in experiment [10], in experiment [11] and in [12] was more than 100 µM each time.
In the case of `C=Cc1ccc(C)[n+](C[Si](C)(C)O[Si](C)(C)C)c1`, the TGI in experiment [2], in [3], in experiment [4], in experiment [5], in [7] and in [13] was more than 100 µM each time. For the same molecule, the TGI in experiment [10], in experiment [11] and in [12] was more than 100 µM in each case.
For `CS(=O)(=O)c1nc(-c2cc3c(c(S(C)(=O)=O)n2)CCC3)cc2c1CCCCC2`, the TGI in [2] was more than 100 µM; in experiment [3] it was more than 100 µM; in [4], more than 100 µM; in experiment [5], more than 100 µM; in [6], more than 100 µM; in experiment [7], 63.1 µM. Besides, the TGI in [13], in [9], in [10], in [11] and in experiment [12] was more than 100 µM each time.
Turning to `C/C(=N\NS(=O)(=O)c1ccc(C)cc1)C(CN1CCCCC1)C(c1ccccc1)c1c(O)c2ccccc2oc1=O` (stereo not given), the TGI in experiment [1], in [2], in [3], in [4], in experiment [5] and in experiment [7] was more than 100 µM in each case. Also, the TGI in experiment [13], in experiment [8], in [11] and in [12] was more than 100 µM in each case.
`CNS(=O)(=O)NN(C)S(=O)(=O)c1ccccc1`: the TGI in experiment [2], in [3], in experiment [4], in experiment [5], in [7] and in experiment [13] was more than 100 µM in each case. Besides, the TGI in experiment [8], in experiment [11] and in [12] was more than 100 µM in each case.
Consider `COc1cc2c(oc(=O)c3c4oc([Si](C)(C)C)cc4cc(OC)c23)c2cccc(OCc3ccccc3)c12`, for which the TGI was more than 67.2 µM in experiment [1]; more than 100 µM in experiment [2]; 35.6 µM in experiment [3]; more than 100 µM in experiment [4]; more than 100 µM in [5]; more than 100 µM in [7]. Further, the TGI in experiment [13] is more than 100 µM; in experiment [8], more than 100 µM; in experiment [10], more than 85.9 µM; in experiment [11] it was more than 100 µM; in experiment [12], more than 100 µM.
With `CC(=O)OCC1=C(CCC#N)N2C(=O)C(NC(=O)Cc3cccs3)C2S(=O)C1` (stereo not given), the TGI in experiment [1], in [2], in [3], in experiment [4], in [5] and in experiment [7] was more than 100 µM each time. For the same molecule, the TGI in experiment [13], in experiment [8], in [10], in [11] and in experiment [12] was more than 100 µM in each case.
On to `O=c1[nH]c2cc(Cl)ccc2nc1/C(=N\O)C(O)c1cccc([N+](=O)[O-])c1` (stereo not given), for which the TGI in experiment [1], in [2], in experiment [3], in experiment [4], in experiment [5] and in [13] was more than 100 µM each time. The TGI in experiment [8], in experiment [10] and in experiment [12] was more than 100 µM in each case.
